Assay results from ChEMBL document CHEMBL4828766 (J Med Chem, 2021).
Square brackets hold non-standard residues; d marks the D form. Peptide text beside a SMILES is read from it. dPhe(4-I) = N[C@H](Cc1ccc(I)cc1)C(=O)O; 2Nal = N[C@@H](Cc1ccc2ccccc2c1)C(=O)O; d2Nal = N[C@H](Cc1ccc2ccccc2c1)C(=O)O

Tests used:
Format in all cases: functional, cell-based
[1] = biological target: Melanocyte-stimulating hormone receptor (Mus musculus, UniProt Q01727); test: Agonist activity at mouse MC1R expressed in HEK293 cells assessed as induction of cAMP level at 100 uM incubated for 2 hr by alphaScreen assay
Melanocortin receptor 3 [2] = biological target: T1, Melanocortin receptor 3 (Mus musculus, UniProt P33033); test: Agonist activity at mouse MC3R expressed in HEK293 cells assessed as induction of cAMP level incubated for 2 hr by alphaScreen assay
Melanocortin receptor 5 = Melanocortin receptor 5 (Mus musculus, UniProt P41149); test: Agonist activity at mouse MC5R expressed in HEK293 cells assessed as induction of cAMP level at 100 uM incubated for 2 hr by alphaScreen assay
Melanocortin receptor 3 [3] = biological target: T1, Melanocortin receptor 3; test: Antagonist activity at mouse melanocortin receptor 3 expressed in HEK293 cells assessed as inhibition of NDP-MSH-induced cAMP accumulation incubated for 2 hrs by cAMP Alpha-screen assay based Schild analysis; conditions: for Kb: read-out: pA2 (converted)
Melanocortin receptor 4 [4] = biological target: T2, Melanocortin receptor 4 (Mus musculus, UniProt P56450); test: Antagonist activity at mouse melanocortin receptor 4 expressed in HEK293 cells assessed as inhibition of NDP-MSH-induced cAMP accumulation incubated for 2 hrs by cAMP Alpha-screen assay based Schild analysis; conditions: for Kb: read-out: pA2 (converted)
Melanocortin receptor 4 [5] = biological target: T2, Melanocortin receptor 4; test: Agonist activity at mouse MC4R expressed in HEK293 cells assessed as induction of cAMP level incubated for 2 hr by alphaScreen assay
[6] = biological target: Melanocyte-stimulating hormone receptor (Mus musculus) (UniProt Q01727); test: Agonist activity at mouse MC1R expressed in HEK293 cells assessed as induction of cAMP level at 100 uM incubated for 2 hr by alphaScreen assay relative to NDP-MSH
[7] = biological target: Melanocortin receptor 3 (Mus musculus) (UniProt P33033); test: Agonist activity at mouse MC3R expressed in HEK293 cells assessed as induction of cAMP level at 100 uM incubated for 2 hr by alphaScreen assay relative to control
[8] = biological target: Melanocortin receptor 4 (Mus musculus) (UniProt P56450); test: Agonist activity at mouse MC4R expressed in HEK293 cells assessed as induction of cAMP level at 100 uM incubated for 2 hr by alphaScreen assay relative to control
Melanocortin receptor 4 (Mus musculus), sequence (P56450 whole entry): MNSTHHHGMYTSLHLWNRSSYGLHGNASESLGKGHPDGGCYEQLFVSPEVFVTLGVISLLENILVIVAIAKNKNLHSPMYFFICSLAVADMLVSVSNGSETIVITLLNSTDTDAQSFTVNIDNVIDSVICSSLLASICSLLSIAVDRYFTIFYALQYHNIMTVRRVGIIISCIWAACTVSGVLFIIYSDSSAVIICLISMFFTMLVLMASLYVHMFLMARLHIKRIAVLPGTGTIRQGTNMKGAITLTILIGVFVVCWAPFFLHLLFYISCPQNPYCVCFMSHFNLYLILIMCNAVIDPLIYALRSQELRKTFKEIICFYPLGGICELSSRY

T2 sequence (P56450 whole entry): as above
Melanocortin receptor 5, sequence (P41149 whole entry): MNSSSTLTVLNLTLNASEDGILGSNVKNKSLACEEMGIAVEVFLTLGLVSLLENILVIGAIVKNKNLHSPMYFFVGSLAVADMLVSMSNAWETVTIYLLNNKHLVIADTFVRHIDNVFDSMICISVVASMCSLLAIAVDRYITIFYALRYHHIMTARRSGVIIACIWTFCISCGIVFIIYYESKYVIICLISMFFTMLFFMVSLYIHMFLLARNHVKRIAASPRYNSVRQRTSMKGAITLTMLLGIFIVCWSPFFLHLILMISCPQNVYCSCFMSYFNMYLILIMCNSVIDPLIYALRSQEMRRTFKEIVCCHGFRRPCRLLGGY
T1 sequence (P33033 whole entry): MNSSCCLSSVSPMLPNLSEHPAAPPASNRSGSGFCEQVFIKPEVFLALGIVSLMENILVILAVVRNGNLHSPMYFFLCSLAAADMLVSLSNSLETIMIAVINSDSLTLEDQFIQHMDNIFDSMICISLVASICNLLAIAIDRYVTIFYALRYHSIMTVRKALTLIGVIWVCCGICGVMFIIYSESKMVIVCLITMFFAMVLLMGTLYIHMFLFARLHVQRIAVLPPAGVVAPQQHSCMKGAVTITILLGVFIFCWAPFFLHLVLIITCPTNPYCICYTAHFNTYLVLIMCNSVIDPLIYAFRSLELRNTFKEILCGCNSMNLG
Melanocortin receptor 3 (Mus musculus), sequence (P33033 whole entry): as above
Melanocyte-stimulating hormone receptor, sequence (Q01727 whole entry): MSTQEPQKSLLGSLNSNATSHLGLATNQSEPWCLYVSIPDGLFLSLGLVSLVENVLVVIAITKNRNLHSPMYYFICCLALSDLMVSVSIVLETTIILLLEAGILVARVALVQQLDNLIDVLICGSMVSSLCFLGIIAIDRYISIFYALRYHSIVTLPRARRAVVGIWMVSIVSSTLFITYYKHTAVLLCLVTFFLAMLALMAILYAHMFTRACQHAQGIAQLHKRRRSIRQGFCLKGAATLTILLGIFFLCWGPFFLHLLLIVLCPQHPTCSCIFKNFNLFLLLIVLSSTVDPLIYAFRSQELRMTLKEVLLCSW
Melanocyte-stimulating hormone receptor (Mus musculus), sequence (Q01727 whole entry, looked up): as the sequence (Q01727 whole entry) above

| Structure (SMILES) | EC50 [1] [nM] | EC50 (Melanocortin receptor 3 [2]) [nM] | EC50 (Melanocortin receptor 5) [nM] | Kb (Melanocortin receptor 3 [3]) [nM] | Kb (Melanocortin receptor 4 [4]) [nM] | EC50 (Melanocortin receptor 4 [5]) [nM] | Ki (Melanocortin receptor 4 [4]) [nM] | Activity [6] [%] | Activity [7] [%] | Activity [8] [%] | Activity ([7]; filed as agonist) [%] | Activity ([6]; filed as agonist) [%] | Ki (Melanocortin receptor 3 [3]) [nM] |
| --- | --- | --- | --- | --- | --- | --- | --- | --- | --- | --- | --- | --- | --- |
| CC(=O)N[C@H](Cc1ccc2ccccc2c1)C(=O)N[C@@H](CCCNC(=N)N)C(=O)N[C@H](Cc1ccc(I)cc1)C(=O)N[C@H](CCCCN)C(N)=O | 220 | > 100000 | > 100000 | 126 | 3.16 | > 100000 | – | – | – | – | – | – | – |
| CC(=O)N[C@H](Cc1ccc(I)cc1)C(=O)N[C@H](Cc1ccc2ccccc2c1)C(=O)N[C@@H](Cc1c[nH]c2ccccc12)C(=O)N[C@@H](CCCNC(=N)N)C(N)=O | > 100000 | > 100000 | > 100000 | > 3160 | 2510 | > 100000 | 2500 | – | – | – | – | – | – |
| CC(=O)N[C@H](Cc1ccc(I)cc1)C(=O)N[C@H](Cc1ccc2ccccc2c1)C(=O)N[C@H](Cc1ccc(I)cc1)C(=O)N[C@H](CCCCN)C(N)=O | > 100000 | > 100000 | > 100000 | > 3160 | > 3160 | > 100000 | – | – | – | – | – | – | – |
| CC(=O)N[C@H](Cc1ccc2ccccc2c1)C(=O)N[C@H](Cc1ccc2ccccc2c1)C(=O)N[C@H](Cc1ccc2ccccc2c1)C(=O)N[C@@H](CCCNC(=N)N)C(N)=O | – | – | – | > 3160 | > 3160 | – | – | 30 | 35 | 25 | – | – | – |
| CC(=O)N[C@H](Cc1ccc2ccccc2c1)C(=O)N[C@@H](CCCNC(=N)N)C(=O)N[C@@H](Cc1c[nH]c2ccccc12)C(=O)N[C@@H](CCCNC(=N)N)C(N)=O (Ac-[d2Nal]RWR-NH2) | – | > 100000 | > 100000 | 158 | 5.01 | – | – | – | – | 20 | – | – | – |
| CC(=O)N[C@H](Cc1ccc2ccccc2c1)C(=O)N[C@@H](CCCNC(=N)N)C(=O)N[C@@H](Cc1c[nH]c2ccccc12)C(=O)N[C@H](Cc1ccc2ccccc2c1)C(N)=O (Ac-[d2Nal]RW[d2Nal]-NH2) | – | – | > 100000 | 2000 | 100 | – | – | – | – | 30 | 40 | – | – |
| CC(=O)N[C@H](Cc1ccc2ccccc2c1)C(=O)N[C@@H](CCCNC(=N)N)C(=O)N[C@@H](Cc1c[nH]c2ccccc12)C(=O)N[C@H](CCCCN)C(N)=O (Ac-[d2Nal]RW[dK]-NH2) | > 100000 | > 100000 | > 100000 | 3160 | 20 | > 100000 | – | – | – | – | – | – | – |
| CC(=O)N[C@H](Cc1ccc2ccccc2c1)C(=O)N[C@@H](CCCNC(=N)N)C(=O)N[C@@H](Cc1ccc2ccccc2c1)C(=O)N[C@@H](CCCNC(=N)N)C(N)=O (Ac-[d2Nal]R[2Nal]R-NH2) | > 100000 | > 100000 | > 100000 | 100 | 1.58 | – | – | – | – | 30 | – | – | – |
| CC(=O)N[C@H](Cc1ccc2ccccc2c1)C(=O)N[C@@H](CCCNC(=N)N)C(=O)N[C@H](Cc1ccc(I)cc1)C(=O)N[C@@H](CCCNC(=N)N)C(N)=O (Ac-[d2Nal]R[dPhe(4-I)]R-NH2) | 40 | > 100000 | > 100000 | 79.4 | 2.51 | > 100000 | – | – | – | – | – | – | – |
| CC(=O)N[C@H](Cc1ccc2ccccc2c1)C(=O)N[C@H](Cc1ccc2ccccc2c1)C(=O)N[C@@H](Cc1c[nH]c2ccccc12)C(=O)N[C@H](CCCCN)C(N)=O (Ac-[d2Nal][d2Nal]W[dK]-NH2) | – | > 100000 | > 100000 | 1580 | 200 | – | – | 25 | – | 30 | – | – | – |
| CC(=O)N[C@H](Cc1ccc2ccccc2c1)C(=O)N[C@H](Cc1ccc2ccccc2c1)C(=O)N[C@@H](Cc1ccc2ccccc2c1)C(=O)N[C@H](CCCCN)C(N)=O (Ac-[d2Nal][d2Nal][2Nal][dK]-NH2) | – | > 100000 | > 100000 | > 3160 | > 3160 | > 100000 | – | – | – | – | – | 45 | – |
| CC(=O)N[C@H](Cc1ccc2ccccc2c1)C(=O)N[C@H](Cc1ccc2ccccc2c1)C(=O)N[C@H](Cc1ccc2ccccc2c1)C(=O)N[C@H](CCCCN)C(N)=O (Ac-[d2Nal][d2Nal][d2Nal][dK]-NH2) | – | > 100000 | > 100000 | > 3160 | > 3160 | > 100000 | – | – | – | – | – | 55 | – |
| CC(=O)N[C@H](Cc1ccc2ccccc2c1)C(=O)N[C@H](Cc1ccc2ccccc2c1)C(=O)N[C@H](Cc1ccc(I)cc1)C(=O)N[C@@H](CCCNC(=N)N)C(N)=O (Ac-[d2Nal][d2Nal][dPhe(4-I)]R-NH2) | – | > 100000 | – | > 3160 | > 3160 | > 100000 | – | 25 | – | – | – | – | – |
| CC(=O)N[C@H](Cc1ccc2ccccc2c1)C(=O)N[C@H](Cc1ccc2ccccc2c1)C(=O)N[C@H](Cc1ccc(I)cc1)C(=O)N[C@H](CCCCN)C(N)=O (Ac-[d2Nal][d2Nal][dPhe(4-I)][dK]-NH2) | – | > 100000 | > 100000 | > 3160 | > 3160 | > 100000 | – | 20 | – | – | – | – | – |
| CC(=O)N[C@H](Cc1ccc(I)cc1)C(=O)N[C@@H](CCCNC(=N)N)C(=O)N[C@@H](Cc1c[nH]c2ccccc12)C(=O)N[C@H](Cc1ccc2ccccc2c1)C(N)=O (Ac-[dPhe(4-I)]RW[d2Nal]-NH2) | – | – | > 100000 | 1000 | 25.1 | – | 25 | – | 25 | 35 | – | 45 | 1000 |
| CC(=O)N[C@H](Cc1ccc(I)cc1)C(=O)N[C@@H](CCCNC(=N)N)C(=O)N[C@@H](Cc1c[nH]c2ccccc12)C(=O)N[C@H](CCCCN)C(N)=O (Ac-[dPhe(4-I)]RW[dK]-NH2) | > 100000 | > 100000 | > 100000 | 631 | 25.1 | > 100000 | 25 | – | – | – | – | – | 630 |
| CC(=O)N[C@H](Cc1ccc(I)cc1)C(=O)N[C@@H](CCCNC(=N)N)C(=O)N[C@@H](Cc1ccc2ccccc2c1)C(=O)N[C@H](Cc1ccc2ccccc2c1)C(N)=O (Ac-[dPhe(4-I)]R[2Nal][d2Nal]-NH2) | – | > 100000 | > 100000 | > 3160 | 200 | > 100000 | 200 | – | – | – | – | 55 | – |
| CC(=O)N[C@H](Cc1ccc(I)cc1)C(=O)N[C@@H](CCCNC(=N)N)C(=O)N[C@H](Cc1ccc(I)cc1)C(=O)N[C@@H](CCCNC(=N)N)C(N)=O (Ac-[dPhe(4-I)]R[dPhe(4-I)]R-NH2) | 7 | > 100000 | > 100000 | 39.8 | 3.16 | > 100000 | 3.2 | – | – | – | – | – | 40 |
| CC(=O)N[C@H](Cc1ccc(I)cc1)C(=O)N[C@@H](CCCNC(=N)N)C(=O)N[C@H](Cc1ccc(I)cc1)C(=O)N[C@H](CCCCN)C(N)=O (Ac-[dPhe(4-I)]R[dPhe(4-I)][dK]-NH2) | 35 | > 100000 | > 100000 | 31.6 | 3.16 | > 100000 | 3.2 | – | – | – | – | – | 32 |
| CC(=O)N[C@H](Cc1ccc(I)cc1)C(=O)N[C@H](Cc1ccc2ccccc2c1)C(=O)N[C@@H](Cc1c[nH]c2ccccc12)C(=O)N[C@H](CCCCN)C(N)=O (Ac-[dPhe(4-I)][d2Nal]W[dK]-NH2) | – | > 100000 | > 100000 | 2000 | 251 | > 100000 | 250 | – | – | – | – | 65 | 2000 |
| CC(=O)N[C@H](Cc1ccc(I)cc1)C(=O)N[C@H](Cc1ccc2ccccc2c1)C(=O)N[C@@H](Cc1ccc2ccccc2c1)C(=O)N[C@@H](CCCNC(=N)N)C(N)=O (Ac-[dPhe(4-I)][d2Nal][2Nal]R-NH2) | – | > 100000 | 800 | > 3160 | 1580 | > 100000 | 1600 | – | – | – | – | – | – |
| CC(=O)N[C@H](Cc1ccc(I)cc1)C(=O)N[C@H](Cc1ccc2ccccc2c1)C(=O)N[C@H](Cc1ccc2ccccc2c1)C(=O)N[C@@H](CCCNC(=N)N)C(N)=O (Ac-[dPhe(4-I)][d2Nal][d2Nal]R-NH2) | > 100000 | > 100000 | 230 | > 3160 | > 3160 | > 100000 | – | – | – | – | – | – | – |
| CC(=O)N[C@H](Cc1ccc(I)cc1)C(=O)N[C@H](Cc1ccc2ccccc2c1)C(=O)N[C@H](Cc1ccc2ccccc2c1)C(=O)N[C@H](CCCCN)C(N)=O (Ac-[dPhe(4-I)][d2Nal][d2Nal][dK]-NH2) | – | > 100000 | > 100000 | > 3160 | 501 | > 100000 | – | – | – | – | – | – | – |
| CC(=O)N[C@H](Cc1ccc(I)cc1)C(=O)N[C@H](Cc1ccc2ccccc2c1)C(=O)N[C@H](Cc1ccc(I)cc1)C(=O)N[C@@H](CCCNC(=N)N)C(N)=O (Ac-[dPhe(4-I)][d2Nal][dPhe(4-I)]R-NH2) | – | > 100000 | – | > 3160 | > 3160 | > 100000 | – | – | – | – | – | 40 | – |
